Structures are written as SMILES. Results filed as inconclusive are left out.

The experiment relates to D54 LucT luciferase reporter counterscreen, luminescence, 24 h. The experiment in a line: reporter signal increase, D54 LucT cells – cell-based, luminescence, cherry pick, counter-screen for N-linked glycosylation inhibitor project, dose response (AID 624404). On the technique in general: The purpose of a counterscreen is to sort out artefacts and off-target activity.
Regarding `CCOc1ccc2[nH]c(C(=O)N/N=C/c3cc(OC)c(OC)c(OC)c3)cc2c1`, the AC35 is 3270 nM.

Consider `COc1cccc(C2=NOC(C(=O)NCc3ccccc3)C2)c1` (stereo not given), for which the AC35 was 102 nM. Then `O=C(N/N=C/c1cccnc1)c1cc(-c2ccccc2OCc2ccccc2)n[nH]1`, with 2460 nM; and `Cc1cc(C)cc(N=Cc2ccc([N+](=O)[O-])s2)c1`, with 724 nM. `CCOC(=O)N/N=C/c1ccc(N(CC)CC)cc1O`: the AC35 is 2580 nM. For `COC(=O)/C=C1\C(=O)N(c2nc3ccccc3s2)C(=S)N1c1ccc(F)cc1`, the AC35 was 14.9 nM. On to `CN(Cc1ccccc1)c1nc2c(c(=O)n(C)c(=O)n2C)n1CCCc1ccccc1`, for which the AC35 was 893 nM. Then `COc1ccc(-n2c(NNC(C)=O)nc3sc4c(c3c2=O)CCCC4)cc1`, with 1860 nM; and `COc1cc2c(cc1OC)C(=O)N1[C@H]3c4ccccc4OC[C@@H]3[C@H](c3ccccc3)[C@]1(C)C(=O)N2`, with 196 nM; and `CCn1ncc(C2=NOC(C(=O)NCc3ccc(Cl)cc3)C2)c1C` (stereo not given), with 14700 nM. Then `COc1ccc(CC(=O)N(Cc2ccccc2)c2ccc(C)cc2)cc1S(=O)(=O)N1CCOCC1`, with 2500 nM; and `Cc1cc(=O)oc2cc(OCC3CC(c4ccccc4)=NO3)ccc12` (stereo not given), with 1540 nM; and `COc1ccc(/C=C/C(=O)c2c(O)cc(OC)cc2OC)cc1`, with 3210 nM. Then `O=C1OCC2=C1C(c1ccc3c(c1)OCO3)c1cc3c(cc1O2)OCO3` (stereo not given), with 352 nM. For the compound `COc1ccc(-n2c(=S)[nH]c3cc(C(=O)Nc4ccc(C)c(F)c4)ccc3c2=O)c(OC)c1`, the AC35 is 245 nM.

`CCCNc1nc2ccccc2n2c(C)nnc12`: the AC35 is 19.1 nM.

`COc1cccc(C(NC(C)=O)c2nc(-c3ccccc3OC)cs2)c1` (stereo not given): the AC35 is 93.3 nM.

On to `O=C(CN1CCC(O)(c2cccc(F)c2)CC1)NCCc1c[nH]c2ccccc12`, for which the AC35 was 972 nM. Then `Cc1ccc(Sc2c(CO)c(-c3ccccc3)nn2C)cc1`, with 166 nM; and `CCOc1ccc(Nc2nc(N(C)c3ccccc3)nc(N)c2[N+](=O)[O-])cc1`, with 128 nM. With `COc1cc(/C=C(/C(=O)c2cccs2)c2nc3ccccc3[nH]2)cc(OC)c1O`, the AC35 is 19.5 nM. As to `COC(=O)c1c(NC(=O)c2cccnc2Cl)sc(C(=O)N(C)C)c1C`, the AC35 was 1380 nM. Regarding `CC#CC#Cc1cccc(=O)o1`, the AC35 is 407 nM. As to `Cc1ccc(Nc2nc(-c3sc(C)nc3C)cs2)cc1`, the AC35 was 46.9 nM. Then `Cc1nnc2ccc(-c3ccc(NC(=O)c4ccco4)cc3)nn12`, with 644 nM; and `Cn1c(=O)n(C)c2cc(NC(=O)CCl)ccc21`, with 707 nM. The value for `COc1ccc2c(c1)[C@H]1[C@H](CO2)[C@H](c2ccccc2)[C@]2(C)C(=O)Nc3ccc(F)cc3C(=O)N12` was 582 nM. The value for `COc1ccc(C(=O)N2CCN(S(=O)(=O)c3ccc(C)cc3C)CC2)cc1S(=O)(=O)N1CCOCC1` was 4790 nM. For the compound `COC(=O)Nc1nc2ccc(-c3n[nH]c(=O)c4ccccc34)cc2[nH]1`, the AC35 was 282 nM. On to `CC#CCN1c2ccccc2[C@]23C[C@@H](C(=O)OC)N(C(=O)c4cc(C)oc4C)C2=NC(C(=O)OC)=C(C(=O)OC)[C@H]13`, for which the AC35 is 2270 nM.

Consider `COc1cc(/C=C2\SC(=S)N(CCC(=O)N3CCCCC3)C2=O)cc(OC)c1OC`, for which the AC35 is 3440 nM. Then `Cc1ccc(C2=NN(C(=O)CSc3nccn3C)C(c3ccco3)C2)cc1` (stereo not given), with 323 nM; and `Cc1ccc2nc(-c3ccc(SCC(=O)Nc4nnc(C)s4)nc3)[nH]c2c1`, with 22.4 nM. The value for `COc1ccc(NC(=O)C2Cc3c(-c4cccc(NC(C)=O)c4)ccnc3O2)cc1` (stereo not given) was 18.9 nM; that for `O=c1[nH]c(=O)n([C@H]2C[C@H](O)[C@@H](CO)O2)cc1I` was 4150 nM; that for `O=c1cc(N2CCN(c3ccccc3Cl)CC2)[nH]c(=O)n1Cc1ccc(F)cc1` was 3260 nM. Then `CC(=O)OC1CC[C@]2(C#N)[C@H]3CC[C@]4(C)[C@H](C5C=CC(=O)O5)CCC4(O)C3CCC2(O)C1` (stereo not given in full), with 2850 nM. Take `COc1ccc2c(c1)[C@H]1[C@H](CO2)[C@H](c2ccccc2)[C@]2(C)C(=O)Nc3cc(C)ccc3C(=O)N12`: the AC35 was 66.8 nM.

Turning to `CC[C@H](C)C(=O)O[C@H]1CCC=C2C=C[C@H](C)[C@H](CC[C@@H]3C[C@@H](O)CC(=O)O3)[C@H]21`, the AC35 was 1260 nM. On to `COc1ccccc1NC(=O)c1ccc(-c2ccc(Br)cc2)o1`, for which the AC35 was 466 nM. `C=CCNc1nc2cc(-c3ccccc3C)sc2c(=O)n1C`: the AC35 is 1110 nM.

Turning to `O=C(Nc1ncccc1O)c1ccc(S(=O)(=O)Nc2ccccc2)cc1`, the AC35 was 2190 nM. The value for `Cc1noc(C)c1COc1ccc(C(=O)NNC(=O)c2ccccc2)cc1` was 271 nM. Then `COC(=O)c1cn(C(=O)c2cccc3ccccc23)c2ccccc12`, with 284 nM; and `COc1cc(C(=O)Nc2cc(C(F)(F)F)ccc2N2CCOCC2)ccc1OCC(=O)N1CCOCC1`, with 2130 nM; and `NC(=O)CC(NC(=O)Cc1ccc(Br)cc1)c1ccc(NC2CCN(Cc3ccccc3)CC2)c([N+](=O)[O-])c1` (stereo not given), with 983 nM. Turning to `CC1CN(C(=O)c2cc(-c3ccncc3)nc3ccccc23)CC(C)O1` (stereo not given), the AC35 is 1720 nM. The value for `O=C(Nc1cccc2ncccc12)c1ccc([N+](=O)[O-])o1` was 4570 nM; that for `COc1ccccc1-c1csc(C(NC(C)=O)c2ccc(F)c(F)c2)n1` (stereo not given) was 420 nM. The value for `COc1ccccc1CCC(=O)Nc1ccc2c(c1)c(=O)n(C)n2-c1cccs1` was 2330 nM; that for `Cc1ccc(-c2nc3ncccc3o2)cc1NC(=O)c1ccc([N+](=O)[O-])o1` was 505 nM.

For the compound `Cc1ccc(C(=O)Nc2ccccc2C(=O)N2CC(C)OC(C)C2)cc1` (stereo not given), the AC35 was 625 nM. The value for `Cn1c(=O)[nH]c(=O)c2c1nc(N(CCO)Cc1ccccc1)n2CCCc1ccccc1` was 547 nM; that for `CC(=O)NC(=C(Cl)Cl)S(=O)(=O)c1ccccc1` was 3670 nM; that for `Nc1c(N(Cc2ccccc2)C(=O)COc2ccc([N+](=O)[O-])cc2)c(=O)[nH]c(=O)n1Cc1ccccc1` was 303 nM. Then `Cc1ccc(N=Nc2c(N)nn(-c3ccccc3)c2N)cc1`, with 56.1 nM; and `Cc1cnc(NC(=O)C2CC(=O)N(c3cccc(Cl)c3)C2)s1` (stereo not given), with 1600 nM; and `Cn1c(SCC(=O)c2ccc(F)cc2)ncc(C(=O)Nc2ccccc2)c1=O`, with 1690 nM. Then `COc1ccc(/C=N/NC(=O)c2ccccc2OCc2ccccc2)c(OC)c1`, with 1600 nM; and `NC(=O)CC(NC(=O)Cc1ccc(Br)cc1)c1ccc(NC2CC3CCC2C3)c([N+](=O)[O-])c1` (stereo not given), with 210 nM; and `CC12CC[C@H]3[C@@H](CCC4(O)C[C@H](O)CCC34/C=N/NC(=O)c3ccccc3[N+](=O)[O-])C1(O)CCC2C1=CC(=O)OC1` (stereo not given in full), with 4030 nM.

For `COc1ccc(/C=N/NC(=O)c2cccc(NC(=O)c3ccccc3Cl)c2)cc1`, the AC35 is 495 nM. The value for `C=CCn1c(O)c(C(CC)=NC(C)c2ccccc2)c(=O)[nH]c1=O` (stereo not given) was 1080 nM. Then `O=C(COC(=O)Cn1cnc2ccccc21)Nc1cccc2c1C(=O)c1ccccc1C2=O`, with 459 nM. On to `CC(C)(C)OC(=O)[C@H](Cc1ccccc1)NC(=O)c1nc[nH]c1C(=O)N1CCc2ccccc2C1`, for which the AC35 is 2550 nM.
